Data on 5 compounds can be found in ChEMBL document CHEMBL1149850, “Cytotoxic hydrolyzable tannins from Balanophora japonica” (J Nat Prod, 2008).

The assay deals with HepG2. Briefly: Cytotoxicity against human HepG2 cells. Format: functional, cell-based.
As to `O=C(O)C[C@@H]1C(=O)O[C@H]2[C@H](O)[C@@H](O)[C@H](OC(=O)/C=C/c3ccc(O)c(O)c3)O[C@@H]2COC(=O)c2cc(O)c(O)c3c2[C@H]1C(=O)O3` [BALANOPHOTANNIN F], the IC50 came to 48.4 µM.
To `O=c1[nH]cc(F)c(=O)[nH]1` [FLUOROURACIL] belongs 18.7 µM; to `O=C(/C=C/c1ccc(O)c(O)c1)O[C@@H]1O[C@H](COC(=O)[C@H]2CC(=O)c3oc(=O)c4cc(O)c(O)c(O)c4c32)[C@@H](O)[C@H](O)[C@H]1O` [BALANOPHOTANNIN D], 17.4 µM.
To `O=C(O)C[C@@]12Oc3c(O)c(O)cc(C(=O)OC[C@H]4O[C@@H](OC(=O)/C=C/c5ccc(O)c(O)c5)[C@H](O)[C@@H](O)[C@@H]4O)c3[C@@H]1[C@H](C(=O)O)OC2=O` [BALANOPHOTANNIN G] belongs 18 µM; to `O=C(O[C@@H]1O[C@H](COC(=O)[C@H]2CC(=O)c3oc(=O)c4cc(O)c(O)c(O)c4c32)[C@@H](O)[C@H](OC(=O)c2cc(O)c(O)c(O)c2)[C@H]1O)c1cc(O)c(O)c(O)c1` [BALANOPHOTANNIN E], 4.22 µM.

As a reminder, the IC50 is the concentration that inhibits the measured activity by half. High values mean weaker potency, low ones greater potency.
